Measurements from patent US12503717B2, “Systems and methods for modeling disease and assessing adverse side effects of therapeutics therefor” (NOVOHEART INTERNATIONAL LIMITED, priority 2016, dated 2025).
Marks after values point to notes of the source that are not given here.

Key:
[1] = test system: hvCAS (human ventricular cardiac anisotropic sheet of HES2 hESC-derived ventricular cardiomyocytes); assay type: cell-based
Experimental: hvCAS preparations were loaded with di-8-ANEPPS (10 μM; D-3167; Molecular Probes)/[…] (0.04%; P-3000MP; Life Technologies) for 1 hour at 37° C. in DMEM-F12, followed by incubation at room temperature (RT) for 15 minutes in Blebbistatin (50 μM, B0560; Sigma-Aldrich) in Tyrode's solution. Tyrode's solution consists of 140 mM NaCl, 5 mM KCl, 1 mM MgCl2, 1 mM CaCl2, 10 mM D-glucose, and 10 mM HEPES at pH 7.4 to minimize potential interference of optical mapping signals by motion artifacts. The dye-loaded hvCAS preparations were bathed in Tyrode's solution which was maintained at 35-37° C. using a culture dish incubator (Warners Instruments). High-resolution optical mapping of AP and conduction properties was performed using a MiCam Ultima (SciMedia, CA, USA) with a 1× objective and a 1× condensing lens to yield a 10 mm by 10 mm field of view. Fluorescence imaging was performed using a halogen light filtered by a 515±35 nm band-pass excitation filter and a 590 nm high-pass emission filter. Data were collected at a sampling rate of 200 Hz and analyzed using BVAna software (SciMedia). A programmable stimulator (Master8; AMPI, Israel) was enrolled to deliver pacing stimuli (10V, 10-ms pulse duration) via a unipolar point-stimulation electrode (Harvard Apparatus, MA, USA) placed perpendicular to the hvCAS surface.
A point stimulation was applied at the center of an […] preparation following the schematic illustration (FIG. 2E) and steady state pacing (10 ms, 10 V) was first applied from 0.5 Hz through to 3 Hz (i.e., 30 to 180 bpm) with 0.5 Hz increments, unless there was a loss of 1:1 capture using Master-8 (AMPI, Israel). A standard (S1-S2) programmed electrical stimulation (PES) protocol was then introduced to further evaluate arrhythmogenicity, similar to what has been previously described^[15]. A train of eight S1 stimuli was delivered at 1.5 Hz followed by a premature extra stimulus (S2) with S1-S2 interval initiated at 550 ms and consecutively shortened in steps of 50 ms until capture failed.
A set of selection criteria was strictly followed before an hvCAS was employed for subsequent drug testing procedures to ensure fair comparison. In particular, the selection criteria included (1) observation of a consistent propagation signal across the whole field of view, (2) a maximum capture frequency of at least 1.5 Hz and (3) no re-entry at baseline. Drugs were then added at three cumulative doses to cover the therapeutic range and HERG IC50 was determined using a conventional technique known in the art.^[33] All drugs were purchased from Sigma-aldrich (MO, USA). […] Steady-state pacing and PES were repeated, as described above, for each dose unless re-entry occurred before the highest dose was applied. Action potential parameters and conduction properties were subsequently analyzed using Clampfit, with APD90 defined as the time from the peak to 90% repolarization. Data are individually presented as mean±SD and statistically compared using Student's t-test with p<0.05 considered statistically significant.

[2] = cited from earlier work

SMILES	arrhythmic risk compared to the respective vehicle control (FIG. 3H) [1]	Chirality of Re-entry: Anticlock-wise ([1]; human, pH 7.4)	Chirality of Re-entry: Clock-wise ([1]; human, pH 7.4)	Chirality of Re-entry: Figure-of-eight ([1]; human, pH 7.4)	Chirality of Re-entry: Multi-origin ([1]; human, pH 7.4)	Frequency of re-entries (Mean ± SD) ([1]; human, pH 7.4)	No. of Re-entry, 1st dose ([1]; human, pH 7.4)	No. of Re-entry, 2nd dose ([1]; human, pH 7.4)	No. of Re-entry, 3rd dose ([1]; human, pH 7.4)	fold increase in incidence rate or arrhythmic risk normalized to corresponding vehicle control ([1]; human, pH 7.4)	risk of arrhythmia or sudden death during hospitalization ([2]; nested case-control study)	effect on AP at relatively low doses [1]	fold increase in risk compared to the vehicle control (DMSO) ([1]; human, 300 nM, pH 7.4)	reentrant events at relatively low doses ([1]; human, pH 7.4)	serum concentration associated with clinical TdP ([2]; serum)	clinical QT prolongation / TdP liability ([2]; human, in vivo)
CC(=O)Oc1ccccc1C(=O)O [ASP, aspirin]	lower risk															
COc1cc(N)c(Cl)cc1C(=O)NC1CCN(CCCOc2ccc(F)cc2)CC1OC (stereo not shown) [CISA, cisapride]	elevated risk	5	3	0	1	1.18 ± 0.40	2^[a]	4^[a]	3	2.7 fold	doubling or tripling					
O=C(NCC1CCCCN1)c1cc(OCC(F)(F)F)ccc1OCC(F)(F)F (stereo not shown) [FLE, flecainide]	elevated risk	3	1	1	0	1.92 ± 0.37	4^[a]	1^[a]	0							
CCN(CC)CCNC(=O)c1ccc(N)cc1 [PROC, procainamide]	elevated risk	3	0	0	0	1.53 ± 0.42	1^[a]	2	0	2.3 fold						
CC(C)(C)c1ccc(C(O)CCCN2CCC(C(O)(c3ccccc3)c3ccccc3)CC2)cc1 (stereo not shown) [TERF, terfenadine]	elevated risk	3	1	0	0	1.04 ± 0.31	0	0	4			no apparent effects on AP	1.2 fold	0 of 16	120 nM	
Cc1cccc(C)c1NC(=O)C(C)N (stereo not shown) [TOC, tocainide]	lower risk	0	1	1	0	1.34 ± 0.52	0	1^[a]	1	0.7 fold						
COc1ccccc1OCC(O)CN1CCN(CC(=O)Nc2c(C)cccc2C)CC1 (stereo not shown) [ranolazine]																reasonably safe from causing TdP
